We go through 1 compound from patent publication US20250268844A1, “ANTICANCER AGENTS BASED ON CYCLOPENTENONES” (UNIVERSITY OF CRETE, priority 2022, published 2025).

pIC50: −log10 of the molar value. “Also recorded” adds a separate entry of the source.

Data set [1] has as its system MDA-MB-231 breast carcinoma cells. Briefly: MTT conversion assay, MDA-MB-231. Format: cell-based, human. The following applies: Homo sapiens, 48 hrs treatment. How it is done: (§1) In particular, Enone-1 and Enone-2 were tested for cytotoxic activity in 17 cell lines representing a broad spectrum of human tumors. They include human colorectal carcinoma (Caco2, RKO, HCT15, HT29), liver (HepG2), lung (A549), ovarian carcinoma (A2780, 2780CP, AGE60, SKOV3), anaplastic large cell lymphoma (Mac1 and Mac2a), breast carcinoma (MDA-MB-231), cervical (HeLa), bladder cancer (VM-CUB-1), melanoma (BRO), and multiple myeloma (MR20).
(§2) Each assay was performed in triplicate and repeated in 2-3 independent experiments. Specifically, to measure cell survival, 20 μl of 10 mg/ml MTT (3-([…])-2,5-diphenyl tetrazolium bromide; Sigma) was added to each well and the plates were incubated at 37° C. in 5% CO2 for 3 hours. The supernatant was removed and the formed crystals were dissolved in 200 μl dimethyl sulphoxide. The plates were then analysed at 450 nm on a plate reader. Growth inhibition (reduction in survival) was calculated by expressing the differences in optical densities between treatment wells and control wells as a percentage of the control.
A general note: Formazan colour is commonly taken as a measure of viable cells.

The test system of data set [2] is MB49 mouse bladder carcinoma cells. The data set can be described thus: MTT assay, MB49. Format: cell-based. The note with it: 48 hrs. How it is done: FIG. 5: Effects of enone compounds on mouse tumor growth.
as §2
First, the impact of Enone-1 and Enone-2 on the survival of MB49 cells was verified by MTT assays performed as described in FIG. 1.

For data set [3], the system named is RKO colorectal carcinoma cells. Briefly: MTT conversion assay, RKO. Format: cell-based, human. The note with it: Homo sapiens, colon, 48 hrs treatment. How it is done:
as §1, §2

Data set [4] concerns 2780CP ovarian carcinoma cells. The data set can be described thus: Combination with bortezomib in 2780CP cells. Format: cell-based, human. The following applies: 2 hours bortezomib pre-treatment, then 48 hour co-culture with Enone-2. How it is done: The arrows in the microphotographs of (A) depict 2780CP cells with apoptotic morphology following treatment with 5 nM bortezomib in combination with 0.5 μM Enone-2.
Proteasome inhibitors have been reported to enhance platinum-induced toxicity in cis-platin-resistant ovarian cancer cells. […] To address this hypothesis, 2780CP ovarian carcinoma cells were pre-treated for 2 hours with different concentrations of the proteasomal inhibitor bortezomib, a drug in clinical use, followed by a 48 hour co-culture with Enone-2.

In data set [5] the test system is AGE60 ovarian carcinoma cells. The data set can be described thus: MTT conversion assay, AGE60. Format: cell-based, human. The following applies: Homo sapiens, Ovarian carcinoma cell, 48 hrs treatment. The procedure: as §1, §2
Data set [6] relates to CDT1. The data set can be described thus: CDT1 RNA levels (qPCR) in A2780 cells. Format: cell-based, human. The note with it: 2.5 μM for 6 or 14 hours. The procedure: FIG. 4. Effects of Enone-2 on cell cycle and on the expression levels of replication licensing factors (RLF). (A) Representative cell cycle profiles showing progressive accumulation of A2780 ovarian carcinoma cells in the G2/M phase of the cell cycle following 24 hour treatment with 2.5 or 5 μM Enone-2. Quantification of results is shown in the form of pie charts on the right. PI: propidium iodide. (B) & (C) A2780 cells were treated with 2.5 μM Enone-2 for 6 or 14 hours and analyzed for CDC6 protein levels by immunoblot (B), or RNA levels by reverse transcription qPCR (C). The RNA levels of the RLF CDT1 were also measured by qPCR (C). ***P<0.001; **P<0.01.
Replication licensing factors (RLF) such as CDC6, MCM2-MCM7, ORC and CDT1 form origins of DNA replication in the G1 phase of the cell cycle and initiate DNA replication during the S phase. CDC6 is also involved in S-M checkpoint mechanisms that ensure that the entire genome is replicated just once per cell division. Cancer cells frequently display deregulated expression of RLFs; for example, CDC6 is over-expressed in colorectal and ovarian carcinoma and is associated with poor patient prognosis. […] Because of these characteristics, RLFs are considered as novel targets for anti-cancer therapy. […]
A general note: Real-time PCR tracks product formation cycle by cycle.

Data set [7] concerns SKOV3 ovarian carcinoma cells. The data set can be described thus: MTT conversion assay, SKOV3. Format: cell-based, human. The note with it: Homo sapiens, SK-OV-3, 48 hrs treatment. How it is done: as §1, §2
Data set [8] concerns mdm2, p21, bax and bbc3/puma. The data set can be described thus: RT-qPCR of p53 target genes in A2780 cells. Format: cell-based, human. The following applies: 2.5 μM. How it is done:
FIG. 8: Enones induce the p53 pathway. […] Cell lysates were analyzed for p53 and GAPDH (loading control). (B) A2780 cells were cultured in the presence or absence of 2.5 μM for the indicated time points before being analyzed for p53 and GAPDH levels. (C) Treatment of A2780 cells with 2.5 μM Enone-2 results in the up-regulation of p53-regulated genes (*p<0.05; **p<0.01; ***p<0.001, n=4). (D) Induction of p53 accumulation in AGE60 ovarian carcinoma cells following 6 or 14 hr exposure to 2.5 μM Enone-2. (E) Enone-1 induces the p53 pathway in A2780 cells which were cultured in the presence of 2.5 μM of the drug and analyzed as in (B). (F) Treatment of A2780 cells with 2.5 μM Enone-2 results in the up-regulation of p53-regulated genes (*p<0.05; **p<0.01; ***p<0.001, n=3).
The effects of Enone-2 on p53 and p53-dependent transcription of cell cycle and cell death-associated genes was confirmed by immunoblotting for p53 and by reverse transcription qPCR (RT-qPCR) for mdm2, p21, bax and bbc3/puma, established p53 target genes.

Data set [9] relates to HCT15 colorectal carcinoma cells. The data set can be described thus: MTT conversion assay, HCT15. Format: cell-based, human. The following applies: Homo sapiens, HCT-15, HCT15, colon, 48 hrs treatment. How it is done: as §1, §2
Data set [10] concerns Caco-2 colorectal carcinoma cells. The data set can be described thus: MTT conversion assay, Caco-2. Format: cell-based. The note with it: Homo sapiens, Caco-2, colon, 48 hrs treatment. How it is done: as §1, §2
The test system of data set [11] is HT29 colorectal carcinoma cells. The data set can be described thus: MTT conversion assay, HT29. Format: cell-based, human. The note with it: Homo sapiens, HT-29, HT29, colon, 48 hrs treatment. The procedure:
as §1, §2

For data set [12], the system named is MR20 multiple myeloma cells. Briefly: MTT conversion assay, MR20. Format: cell-based, human. The following applies: Homo sapiens, Multiple myeloma cell, 48 hrs treatment. How it is done:
as §1, §2

In data set [13] the test system is A2780 ovarian carcinoma cells. Briefly: MTT conversion assay, A2780. Format: cell-based, human. The note with it: Homo sapiens, 48 hrs treatment. The procedure:
as §1, §2

Take `C[C@@]1(O)C=CC(=O)[C@H]1c1ccc(F)c2ccccc12` (stereo in doubt) [Enone-2, 5-(4-fluoronaphthalen-1-yl)-4-hydroxy-4-methylcyclopent-2-en-1-one]: the negative logarithm of the IC50 (pIC50) (usually the IC50 on a negative log10 scale, so that one unit is a factor of ten) in data set [1] was 5.60; in [2], 6.22; in data set [3], 5.92; in data set [5], 5.92; in data set [7], 6.52; in data set [9] it was 6.05. Besides, the pIC50 in [10] is 5.74; in data set [11], 6.05; in [12] it was 7.00; in [13], 6.30. Moreover, the “cytotoxicity of combination with bortezomib compared to each agent alone” value in [4] is given as “augmentation of cytotoxicity compared to each agent alone; also recorded: higher cytotoxicity in relation to each agent alone”. Further, the “CDT1 RNA levels” value in data set [6] was “reduce CDT1 RNA levels”. In addition, the “mdm2, p21, bax and bbc3/puma mRNA (p53-dependent gene expression)” value in data set [8] was “time-dependent upregulation”.
